We go through two compounds from patent US20110065896A1, “POLYETHER POLYOL DENDRON CONJUGATES WITH EFFECTOR MOLECULES FOR BIOLOGICAL TARGETING” (MIVENION GMBH, priority 2008, published 2011).

Series [1] can be described thus: Fluorescence quantum yield of dendron dye in comparison to precursor dye. Type of series: physicochemical. From the text:
Fluorescence quantum yield of title compound of example 4a in comparison to precursor dye dendron bis-1,1′-(4-sulfobutyl)indotricarbocyanine-5,5′-dicarboxylic acid, sodium salt

A short description of series [2]: Investigation of solubilities in PBS by observation of precipitates. Type of series: physicochemical. The conditions noted are these: conjugate solutions in PBS obtained in examples 10b and 10c, on storage. How it is done:
Conjugation with IgG antibody: To a solution of 1 mg antibody (IgG from bovine serum; Sigma, >95%, salt free, powder) in […] of phosphate-buffered saline (PBS, pH 7.4) is given […] (32 μL) of a solution of 0.5 mg of N-hydroxysuccinimidyl ester of example 9 in 0.1 mL water. The mixture is shaken at 25° C. for 24 h in the dark. Purification is achieved by filtration via a NAP10 column (Pharmacia) using PBS as eluent. As control conjugate, pyropheophorbide a —NHS-ester is used for conjugation with IgG giving IgG-pyropheo conjugate.
Conjugation with bovine serum albumine (BSA): To a solution of 1 mg BSA (Sigma, fraction V, >98%, powder) in […] of phosphate-buffered saline (PBS, pH 7.4) is given […] (70 μL) of a solution of 0.5 mg of N-hydroxysuccinimidyl ester of example 9 in 0.1 mL water. The mixture is shaken at 25° C. for 24 h in the dark. Purification is achieved by filtration via a NAP 10 column (Pharmacia) using PBS as eluent.
Investigation of solubilities in PBS by observation of precipitates from the solutions obtained in examples 10b and 10c: […]

For the compound `CC1(C)C(=CC=CC=CC=CC2=[N+](CCCCS(=O)(=O)[O-])c3ccc(C(=O)O)cc3C2(C)C)N(CCCCS(=O)(=O)[O-])c2ccc(C(=O)O)cc21.[Na+]` [Precursor dye, bis-1,1′-(4-sulfobutyl)indotricarbocyanine-5,5′-dicarboxylic acid, sodium salt], the Fluorescence quantum yield in series [1] (MeOH) is 0.14; in series [1] (PBS), 0.07. Regarding “BSA-pyropheo: control conjugate: pyropheophorbide a NHS-ester conjugated with BSA”, in series [2], the “Solubility in PBS by observation of precipitates” value was “immediate precipates”.
